Measurements reported in patent US10967038B2, “Use of cell-permeable peptide inhibitors of the JNK signal transduction pathway for the treatment of chronic or non-chronic inflammatory eye diseases” (priority 2010, dated 2021).

Tests used:
Type in all cases: in vivo, rat
[1] = tested on: inducible nitric oxide synthase (iNOS); assay: iNOS expression in ocular tissues (immunohistochemistry, semi-quantitative RT-PCR); conditions: IV or IVT, 24 h, vs control eyes
Experimental: Retinas and RPE/choroid/sclera complexes were also collected at 24 hours to analyze iNOS mRNA levels by RT-PCR and c-Jun phosphorylation state by Western-Blot. Tissues were collected only from eyes treated by IV (intravenous) injection of vehicle, IV injection of the JNK-inhibitor (poly-)peptide of SEQ ID NO: 11, IVT (intravitreal) injection of vehicle and IVT injection of the JNK-inhibitor (poly-)peptide of SEQ ID NO: 11 (n=2 eyes per condition collected from separate rats). Eyes were selected so that their EIU clinical score was representative of the mean of the experimental group they belong to, i.e 3 for eyes treated by IV and IVT injection of vehicle and 2 for eyes treated by IV or IVT injection of the JNK-inhibitor (poly-)peptide of SEQ ID NO: 11.
To characterize the cellular infiltrate, sections were double-stained with ED1 and iNOS. […] After staining nuclei with DAPI (Sigma-Aldrich, Saint-Quentin Fallavier, France), sections were mounted in PBS/Glycerol (1/1) and observed by fluorescence photomicroscopy (FXA, Microphot, Nikon, Melville, USA). […] ED1 positive cells and polymorphonuclear cells, identified by the shape of their nuclei stained with DAPI, were quantified on histological sections. […] Results were expressed as mean±standard error of the mean (SEM). […]

chemokines/cytokines = assay: Chemokine/Cytokine Multiplex Assay on ocular fluids and sera
Experimental: Aqueous humor and vitreous were collected and pooled from each enucleated eye. Ocular fluids were immediately centrifuged and the cell-free fractions were collected and frozen at −20° C. before analysis by Multiplex assay. Blood samples were first clotted at room temperature for 2 hours and then at 4° C. overnight. Serum was collected, centrifuged and the clear supernatant was collected and frozen at −20° C. before Multiplex analysis.
In a first set of experiment, 70 rats were randomized into 14 experimental groups with 5 rats per group. Uveitis was induced in each group and rats were killed 6 hours (4 groups), 24 hours (6 groups) and 48 hours (4 groups) after LPS challenge. For each time point tested (i.e. 6 h, 24 h and 48 h), rats treated by intravenous or intravitreous injections of vehicle (NaCl 0.9%) or the JNK-inhibitor (poly-)peptide of SEQ ID NO: 11 were compared to untreated control uveitic rats. Two additional groups, treated by intravenous injection of vehicle and intravitreal injection of dexamethasone were used at 24 hours. Clinical ocular inflammation was recorded only at 24 hours (see Scoring of Endotoxin-Induced Uveitis (EIU) section). At each time point, intraocular fluids from each eye (n=10 per group) and serum from each animal (n=5 per group) were used for Chemokine/Cytokine Multiplex Assay.
Intraocular fluids (diluted to obtain a final volume of 25 μL) and sera (25 μL of 1:5 dilution) were subjected to multiplex bead analysis. This method uses microspheres as the solid support for immunoassays12 and allows the titration of a greater number of cytokines with increased sensitivity than occurs with ELISA.13 For each sample, seventeen analytes were quantified simultaneously using the rat Cytokine/Chemokine-17plex kit (Milliplex Map Kit, Millipore, Saint-Quentin-en-Yvelines, France) according to the manufacturer's instructions: Chemokines MCP-1/CCL2, MIP-1α/CCL3, RANTES/CCL5, IP-10/CXCL10 (IFN-inducible protein-10) and GRO/KC; proinflammatory mediators IL-1[…], IL-18 and TNF-[…]; Th1/Th2/Th17 cytokines IL-2 and IFN-[…]/IL-4, IL-5, IL-6, IL-10 and IL-13/IL-17. The assay was performed in a 96-well filter plate and standard curves for each cytokine were generated with a Rat Cytokine Standard provided in the kit. All incubation steps were performed under medium orbital agitation and in the dark to protect the beads from light. Data acquisition and analysis were performed with the manager software version 4.1 (Bioplex; Bio-Rad) with four or five logistic parameters for standard curves. Detection thresholds for all the analytes were estimated around 1 to 10 pg/mL.

[2] = tested on: phospho-p44/42 MAPK (Erk1/2); assay: Immunohistochemistry of phospho-p44/42 MAPK (Erk1/2) in EIU eyes; conditions: 24 h
Experimental: (§1) A second set of experiment was designed to evaluate the anti-inflammatory effect of the JNK-inhibitor (poly-)peptide of SEQ ID NO: 11 at the cellular and tissue level as well as the biodistribution of this molecule 24 hours after administration. Rats were randomized into 11 experimental groups. 6 groups of rats with uveitis: untreated uveitic rats, rats injected intravenously with NaCl or the JNK-inhibitor (poly-)peptide of SEQ ID NO: 11 and rats injected intravitreously with the vehicle, the JNK-inhibitor (poly-)peptide of SEQ ID NO: 11 or dexamethasone. The 5 additional groups without uveitis were: untreated healthy rats, rats treated by NaCl IV or the JNK-inhibitor (poly-)peptide of SEQ ID NO: 11 IV and rats injected IVT with NaCl or the JNK-inhibitor (poly-)peptide of SEQ ID NO: 11. Three eyes from separate rats were collected per group and used for immunohistochemistry.
To analyze the ERK and p38 MAPK pathways, blots were sequentially incubated with a rabbit phospho-p44/42 MAPK (Erk1/2) (Thr202/Tyr204) (4370) primary antibody (or rabbit phospho-p38 MAPK (Thr180/Tyr182) (9215) antibody) and a horseradish peroxidase-conjugated goat anti-rabbit IgG (H+L) (PI-1000—Vector Laboratories, Clinisciences, Montrouge, France) secondary antibody at dilution 1:5000. […]

[3] = Ocular biodistribution by immunohistochemistry against SEQ ID NO: 11
Experimental: For immunohistochemistry, eyeballs were collected and fixed for 1 h at room temperature in phosphate buffered saline (PBS) containing 4% paraformaldehyde before being rinsed overnight in PBS. The next day, samples were embedded and frozen in optimal cutting-temperature (OCT) compound (Tissue-Tek®, Sakura Finetek, Zoeterwoude, Netherland) and stored at −80° C. Frozen antero-posterior sections of eyes (10 μm thick) were performed at the optic nerve level using a cryostat (Leica CM 3050S, Rueil-Malmaison, France) and mounted on super-frost slides for immunohistochemical analysis.
as §1
Immunostaining of the JNK-inhibitor (poly-)peptide of SEQ ID NO: 11 was performed on healthy and uveitic eyes to study its ocular biodistribution after systemic or local administration. Briefly, sections were permeabilized as described above before being sequentially incubated with an anti-SEQ ID NO: 11 purified rabbit IgG and a secondary Alexa 594 (red)-conjugated goat anti-rabbit IgG (Invitrogen, Cergy Pontoise, France) diluted 1:100 and 1:250 in PBS respectively. Immunostaining of untreated healthy and uveitic eyes were used as negative controls. Nuclei were stained with DAPI before mounting and observation.

[4] = ocular fluids, IV injection, at 6 and 24 hours
[5] = ocular fluids, IV injection, at different time points
[6] = ocular fluids, IVT injection, at 6 hours, vs vehicle IVT
[7] = ocular fluids, IVT injection, at 24 hours, vs vehicle IVT
[8] = ocular fluids, treated versus untreated eyes, any tested time point

For `CC(C)C[C@@H](NC(=O)[C@@H](Cc1ccccc1)NC(=O)[C@H]1CCCN1C(=O)[C@@H](CCC(N)=O)NC(=O)[C@H](NC(=O)[C@H]1CCCN1C(=O)[C@@H](CCCNC(=N)N)NC(=O)[C@@H](CO)NC(=O)[C@@H](CCC(N)=O)NC(=O)[C@H](N)CC(=O)O)C(C)C)C(=O)N[C@H](CC(N)=O)C(=O)N[C@H](CC(C)C)C(=O)N[C@@H](C(=O)N[C@@H](C(=O)N1CCC[C@@H]1C(=O)N[C@H](CCCNC(=N)N)C(=O)N[C@H](CCCCN)C(=O)N1CCC[C@@H]1C(=O)N[C@H](CCCNC(=N)N)C(=O)N1CCC[C@@H]1C(=O)N1CCC[C@@H]1C(=O)N[C@H](CCCNC(=N)N)C(=O)N[C@H](CCCNC(=N)N)C(=O)N[C@H](CCCNC(=N)N)C(=O)N[C@H](CCC(N)=O)C(=O)N[C@H](CCCNC(=N)N)C(=O)N[C@H](CCCNC(=N)N)C(=O)N[C@H](CCCCN)C(=O)N[C@H](CCCCN)C(=O)N[C@H](CCCNC(=N)N)C(=O)NCC(=O)O)[C@H](C)O)[C@H](C)O` [SEQ ID NO: 11], the “number of iNOS positive cells” value [1] was “reduced”, the MCP-1 level (chemokines/cytokines; [4]) was “significant reduction” and the MIP-1α level (chemokines/cytokines; [4]) was “significant reduction”. For the same compound, the RANTES level (chemokines/cytokines; [4]) was “significant reduction”, the GRO/KC level (chemokines/cytokines; ocular fluids, IV injection, at 6 hours) was “significantly reduced” and the IL-10 level (chemokines/cytokines; ocular fluids, IV injection, at 6 hours, not significantly) was “tended to increase”. For the same compound, the IL-6 level (chemokines/cytokines; [5]) was “significantly reduced”, the INF-γ level (chemokines/cytokines; [5]) was “significantly reduced” and the TNF-α level (chemokines/cytokines; [5]) was “significantly reduced”. The IL-2 level (chemokines/cytokines; [6]) was “a trend to a decrease”, the IL-6 level (chemokines/cytokines; [6]) was “a trend to a decrease” and the MCP-1 level (chemokines/cytokines; [6]) was “a trend to a decrease”. The TNF-α level (chemokines/cytokines; [6]) was “a trend to a decrease”, the IL-2 level (chemokines/cytokines; [7]) was “marked decrease” and the IL-13 level (chemokines/cytokines; [7]) was “increase”. For the same compound, the IL-1β level (chemokines/cytokines; [8]) was “did not differ”, the IL-4 level (chemokines/cytokines; [8]) was “did not differ” and the IL-18 level (chemokines/cytokines; [8]) was “did not differ”. The “IL-2 level (tended to be reduced)” value (chemokines/cytokines; serum, IV administration) was “not statistically significant”, the “MIP-1α level (tended to be reduced)” value (chemokines/cytokines; serum, IV administration) was “not statistically significant” and the “IL-2 level (tended to be reduced)” value (chemokines/cytokines; serum, IVT administration) was “not statistically significant”. For the same compound, the “effect on p-Erk1/2 signal in iris epithelium” value ([2]; iris) was “no effect”, the “effect on p-Erk1/2 signal in retinal Müller glial (RMG) cells” value ([2]; neuroretina, IV or IVT) was “no effect” and the “distribution in ocular tissues (immunoreactivity)” value (shortened to “distribution in ocular tissues”) ([3]; EIU eyes, 24 h after IV injection, occasional infiltrating inflammatory cells immunopositive) was “not detected in ocular tissues”. The “distribution in ocular tissues” value ([3]; healthy eyes, 24 h after IV injection, 20 μg/kg) was “no signal was observed”, the “inflammatory cell infiltration in healthy eyes” value ([3]; healthy eyes, 24 h after IV or IVT) was “No inflammatory cell infiltration was observed” and the “distribution in ocular tissues” value ([3]; healthy eyes, 24 h after IVT injection, 0.2 μg/injection) was “distributed in almost all ocular tissues”. For the same compound, the “distribution in ocular tissues” value ([3]; uveitic eyes, 24 h after IVT injection, also in mobilized resident cells (microglial)) was “mostly found in ocular tissues like in healthy eyes”.
